Source: US6203822A, “Gallium-containing compounds for the treatment of infections caused by intracellular pathogens and pathogens causing chronic pulmonary infection” (priority 1996, dated 2001)

Tests used:
[1] = system: M. tuberculosis strain H37Ra; assay: Radiometric BACTEC growth index assay of M. tuberculosis in broth culture, gallium nitrate; assay type: cell-based; details: BACTEC 12B
Method: FIG. 1 provides histograms that illustrate the inhibitory effect of gallium nitrate on M. tuberculosis in broth culture. […] FIG. 1B illustrates the results of experiments to inhibit M. tuberculosis strain H37Ra in broth culture over the range of 0 to 1040 μM concentrations gallium nitrate.
Example 1 details methods for performing the growth index assays of this invention to detect the growth of pathogenic organisms including M. tuberculosis in suspension culture. There are a number of suspension culture methods known in the art. As an example of a suspension assay, M. tuberculosis growth and gallium nitrate inhibition were quantitated using the radiometric BACTEC 460TB system (Becton Dickinson Diagnostic Instrument Systems, Sparks, Md.). […] While this and other examples are directed to the inhibition of Mycobacteria, those skilled in the art will recognize that the assays are readily adaptable to the quantitation of other intracellular bacterial pathogens capable of infecting phagocytic cells. Growth inhibition of parasites or fungi can also be readily assessed by introducing the gallium-containing compounds into cultures of the organisms under standard growth conditions.
Lyophilized M. tuberculosis Erdman strain (ATCC #35801) and H37Ra (ATCC #25177) were reconstituted in pyogen-free water (Sigma, St. Louis, Mo.), plated on 7H11 agar plates, incubated at 37° C. in 5% CO2, 95% air, and after 14 days of culture, harvested and frozen in 7H9 broth at -70° C. […] An aliquot of this suspension was diluted in formalin, counted and diluted to appropriate concentrations for use in experiments. […] The figures illustrate the recorded numbers from bottles on different days which correlate with growth index readings for the various concentrations of gallium nitrate at Day 6.
The BACTEC system (Becton Dickinson, Sparks, Md.) is an instrument to quantitate bacterial growth. […] During quantitation in the BACTEC instrument, the gas is aspirated from the vial and the ^14 CO2 radioactivity is determined on a scale from 0 to 999. […]

[2] = system: Macrophages (MDMs) infected with M. tuberculosis; assay: Monolayer density of macrophages (MDMs) infected with M. tuberculosis and treated with gallium nitrate; assay type: cell-based, human
Method: Macrophages were infected with M. tuberculosis at a ratio of 1:5 (MDMs:bacteria) and treated with 500 μM or 1 mM gallium nitrate. Cell density was assessed over time. The results of the experiments comparing the monolayer integrity of untreated vs. gallium nitrate treated cultures were as follows: […]

O=[N+]([O-])[O-].O=[N+]([O-])[O-].O=[N+]([O-])[O-].[Ga+3] [gallium nitrate]
inhibition of growth [1]: markedly inhibits the growth of M. tuberculosis
concentration with marked inhibition of growth ([1]; radiometric): approximately 100 μM
concentration with statistically significant inhibition of growth ([1]; radiometric): 16.25 µM
Monolayer Integrity ([2]; Experiment #2, Day 1, 24 hr postinfection, 500 μM or 1 mM): No difference between Ga-treated and control
Monolayer Integrity ([2]; Experiment #2, Day 3, 4 days postinfection, 500 μM or 1 mM): No difference between Ga-treated and control
Monolayer Integrity: times the number of cells in Ga-treated cultures ([2]; Experiment #2, Day 6, 7 days postinfection, 500 μM or 1 mM): 2-4 times
Monolayer Integrity ([2]; Experiment No. 1, Day 1, 24 h postinfection, 500 μM or 1 mM): No difference
Monolayer Integrity: more cells in Ga-treated cultures ([2]; Experiment No. 1, Day 8, 9 days postinfection, 500 μM or 1 mM): 25-50%
Monolayer Integrity: times as many cells in Ga-treated cultures ([2]; Experiment No. 1, Day 11, 12 days postinfection, 500 μM or 1 mM): 4-5 times
Monolayer Integrity: times as many cells in Ga-treated cultures ([2]; Experiment No. 1, Day 29, 30 days postinfection, 500 μM or 1 mM): 4-5 times
Monolayer Integrity ([2]; Experiment No. 1, Day 33, 34 days postinfection, control wells had no cells left): No difference between monolayers treated
